The values that follow come from US8420569B2, “Pesticidal mixtures” (BASF SE, priority 2006, dated 2013).

The structures appear in SMILES notation.

What all share (type): in vivo
For test [1], the system named is boll weevil (Anthonomus grandis). The experiment in a line: control of boll weevil, insect diet with eggs in 24-well microtiter plates. Particulars: sprayed onto insect diet, 5 days, egg and larval mortality. The method, then: (§1) The analysis of synergism or antagonism between the mixtures or compositions was determined using Colbys equation.
For evaluating control of boll weevil (Anthonomus grandis) the test unit consisted of 24-well-microtiter plates containing an insect diet and 20-30 A. grandis eggs.
The compounds or mixtures were formulated using a solution containing 75% water and 25% DMSO. Different concentrations of formulated compounds or mixtures were sprayed onto the insect diet at 20 μl, using a custom built micro atomizer, at two replications.
(§2) For experimental mixtures in these tests identical volumes of both mixing partners at the desired concentrations respectively, were mixed together.
After application, microtiter plates were incubated at 23+1° C., 50+5% RH for 5 days. Egg and larval mortality was then visually assessed.
In this test the compound I-2 and N-[2-(1,1,2,3,3,3-hexafluoropropoxy)-phenyl]-3-difluoromethyl-1-methyl-1H-pyrazole-4-carboxamide (compound 3.1), and N-(3′,4′,5′-trifluorobiphenyl-2-yl)-1-methyl-3-difluoromethyl-1H-pyrazole-4-carboxamide (compound 3.2) were used.

The subject of test [2] is green peach aphid (Myzus persicae). Description: control of green peach aphid through systemic means, artificial diet under membrane in 96-well microtiter plates. As to conditions: pipetted into aphid diet, 3 days, mortality and fecundity. As to the method:
as §1
For evaluating control of green peach aphid (Myzus persicae) through systemic means the test unit consisted of 96-well-microtiter plates containing liquid artificial diet under an artificial membrane.
The compounds or mixtures were formulated using a solution containing 75% water and 25% DMSO. Different concentrations of formulated compounds or mixtures were pipetted into the aphid diet, using a custom built pipetter, at two replications.
as §2
After application, 5 to 8 adult aphids were placed on the artificial membrane inside the microtiter plate wells. The aphids were then allowed to suck on the treated aphid diet and incubated at 23+1° C., 50+5% RH for 3 days. Aphid mortality and fecundity was then visually assessed.
In this test the compound 1-2, and 5-chloro-7-(4-methylpiperidin-1-yl)-6-(2,4,6-trifluoro-phenyl)-[1,2,4]triazolo[1,5-a]pyrimidine (compound 2.2) and N-[2-(1,1,2,3,3,3-hexa-fluoropropoxy)-phenyl]-3-difluoromethyl-1-methyl-1H-pyrazole-4-carboxamide (compound 3.1) were used.

Test [3] deals with vetch aphid (Megoura viciae). Description: control of vetch aphid through contact or systemic means, broad bean leaf disks in 24-well microtiter plates. Particulars: sprayed on leaf disks, 5 days, mortality and fecundity. The method, then:
as §1
For evaluating control of vetch aphid (Megoura viciae) through contact or systemic means the test unit consisted of 24-well-microtiter plates containing broad bean leaf disks.
The compounds or mixtures were formulated using a solution containing 75% water and 25% DMSO. Different concentrations of formulated compounds or mixtures were sprayed onto the leaf disks at 2.5 μl, using a custom built micro atomizer, at two replications.
as §2
After application, the leaf disks were air-dried and 5-8 adult aphids placed on the leaf disks inside the microtiter plate wells. The aphids were then allowed to suck on the treated leaf disks and incubated at 23+1° C., 50+5% RH for 5 days. Aphid mortality and fecundity was then visually assessed.
In this test the compound 1-2, and N-(3′,4′-dichloro-5-fluorobiphenyl-2-yl)-3-difluoro-methyl-1-methylpyrazole-4-carboxamide (compound 2.1), and 5-chloro-7-(4-methyl-piperidin-1-yl)-6-(2,4,6-trifluorophenyl)-[1,2,4]triazolo[1,5-a]pyrimidine (compound 2.2) were used.

In the case of `Cn1cc(C(=O)Nc2ccccc2OC(F)(F)C(F)C(F)(F)F)c(C(F)F)n1` (stereo not shown) [3.1, N-[2-(1,1,2,3,3,3-hexafluoropropoxy)-phenyl]-3-difluoromethyl-1-methyl-1H-pyrazole-4-carboxamide], the “Average Control %” value in test [1] (40 ppm) and in test [2] (1000 ppm) was 0% each time.
`CNC(=O)c1cc(C#N)cc(C)c1NC(=O)c1cc(Br)nn1-c1ncccc1Cl` [I-2]: the “Average Control %” value in test [1] (0.5 ppm), in test [2] (0.5 ppm), in test [3] (0.5 ppm) and in test [3] (2.5 ppm) was 0% each time.
In the case of `Cn1cc(C(=O)Nc2ccc(F)cc2-c2ccc(Cl)c(Cl)c2)c(C(F)F)n1` [2.1, N-(3′,4′-dichloro-5-fluorobiphenyl-2-yl)-3-difluoro-methyl-1-methylpyrazole-4-carboxamide], in test [3] (1000 ppm), the “Average Control %” value was determined as 0%.
Turning to `Cn1cc(C(=O)Nc2ccccc2-c2cc(F)c(F)c(F)c2)c(C(F)F)n1` [3.2, N-(3′,4′,5′-trifluorobiphenyl-2-yl)-1-methyl-3-difluoromethyl-1H-pyrazole-4-carboxamide], in test [1] (200 ppm), the “Average Control %” value was 50%.
For the compound `CC1CCN(c2c(-c3c(F)cc(F)cc3F)c(Cl)nc3ncnn23)CC1` [2.2, 5-chloro-7-(4-methyl-piperidin-1-yl)-6-(2,4,6-trifluorophenyl)-[1,2,4]triazolo[1,5-a]pyrimidine], the “Average Control %” value in test [2] (8 ppm) and in test [3] (40 ppm) was 0% each time.
